Data on eleven molecules can be found in ChEMBL document CHEMBL3734746, “Monoamine oxidase inhibitory activities of heterocyclic chalcones” (Bioorg Med Chem Lett, 2015).

The target of data set [1] is T1, Amine oxidase [flavin-containing] A (Homo sapiens, UniProt P21397).
T1 sequence (P21397 whole entry): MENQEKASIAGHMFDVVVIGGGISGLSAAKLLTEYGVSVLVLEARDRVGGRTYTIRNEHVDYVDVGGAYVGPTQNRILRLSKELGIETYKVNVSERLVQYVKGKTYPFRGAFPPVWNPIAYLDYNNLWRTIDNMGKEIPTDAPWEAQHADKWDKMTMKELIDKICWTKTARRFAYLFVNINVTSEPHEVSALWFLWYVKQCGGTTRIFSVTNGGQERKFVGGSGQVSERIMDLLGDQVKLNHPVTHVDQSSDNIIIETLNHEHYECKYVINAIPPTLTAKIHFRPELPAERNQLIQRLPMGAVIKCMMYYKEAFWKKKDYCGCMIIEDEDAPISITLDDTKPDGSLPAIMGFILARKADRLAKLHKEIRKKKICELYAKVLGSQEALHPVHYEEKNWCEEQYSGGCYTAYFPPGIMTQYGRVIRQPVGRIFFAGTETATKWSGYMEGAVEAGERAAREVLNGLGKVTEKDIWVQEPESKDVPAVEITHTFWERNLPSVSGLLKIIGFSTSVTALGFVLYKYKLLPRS
The data set can be described thus: Irreversible inhibition of human MAO-A expressed in baculovirus infected BT1 cells microsome fraction assessed as enzyme activity recovered at 10 times of IC50 concentration preincubated for 30 mins followed by dilution to 0.1 times of IC50 concentration by fluorescence spectrometry. Also on record: scale not given: the % may be the effect or the level left.

Data set [2] deals with T2, Amine oxidase [flavin-containing] B (Homo sapiens, UniProt P27338).
T2 sequence (P27338 whole entry): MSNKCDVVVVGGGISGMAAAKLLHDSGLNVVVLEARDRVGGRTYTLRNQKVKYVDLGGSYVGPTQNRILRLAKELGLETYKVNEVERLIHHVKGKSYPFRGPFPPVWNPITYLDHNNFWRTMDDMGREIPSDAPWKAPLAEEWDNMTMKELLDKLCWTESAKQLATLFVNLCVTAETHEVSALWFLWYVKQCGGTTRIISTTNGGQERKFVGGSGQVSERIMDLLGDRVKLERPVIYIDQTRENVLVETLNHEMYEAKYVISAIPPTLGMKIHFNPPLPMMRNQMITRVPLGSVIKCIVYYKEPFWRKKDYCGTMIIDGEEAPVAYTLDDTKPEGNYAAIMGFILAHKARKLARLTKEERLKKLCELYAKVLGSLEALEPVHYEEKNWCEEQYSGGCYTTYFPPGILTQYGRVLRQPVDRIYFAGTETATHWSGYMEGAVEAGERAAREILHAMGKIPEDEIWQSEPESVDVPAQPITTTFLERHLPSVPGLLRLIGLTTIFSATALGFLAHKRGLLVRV
The data set can be described thus: Inhibition of human MAO-B expressed in baculovirus infected BT1 cells microsome fraction by fluorescence spectrometry.

The target of data set [3] is T1, Amine oxidase [flavin-containing] A. Description: Inhibition of human MAO-A expressed in baculovirus infected BT1 cells microsome fraction by fluorescence spectrometry.
For data set [4], the species on record is Homo sapiens. Description: Selectivity index, ratio of IC50 for human MAO-A to IC50 for human MAO-B.
Data set [5] addresses T2, Amine oxidase [flavin-containing] B. Description: Reversible inhibition of human MAO-B expressed in baculovirus infected BT1 cells microsome fraction assessed as enzyme activity recovered at 10 times of IC50 concentration preincubated for 30 mins followed by dilution to 0.1 times of IC50 concentration by fluorescence spectrometry. Also on record: scale not given: the % may be the effect or the level left.

Data set [6] shares this target. The data set can be described thus: Reversible inhibition of human MAO-B expressed in baculovirus infected BT1 cells microsome fraction assessed as enzyme activity recovered at 100 times of IC50 concentration preincubated for 30 mins followed by dilution to IC50 concentration by fluorescence spectrometry. Also on record: scale not given: the % may be the effect or the level left.

Data set [7] has the same target. Description: Reversible inhibition of human MAO-B expressed in baculovirus infected BT1 cells microsome fraction assessed as residual enzyme activity at 4 times of IC50 concentration preincubated for 15 mins followed by dialysis for 24 hrs by fluorescence spectrometry relative to control.
Data set [8] shares this target. The data set can be described thus: Inhibition of human MAO-B expressed in baculovirus infected BT1 cells microsome fraction assessed as residual enzyme activity at 4 times of IC50 concentration for 15 mins by fluorescence spectrometry relative to control. To be noted: 0.25 h.
Data set [9] can be described thus: Cytotoxicity against human HeLa cells assessed as viable cells at 1 uM by MTT assay. The data set is classed as cell-based. The conditions noted are these: read-out: Activity.
Data set [10] can be described thus: Cytotoxicity against human HeLa cells assessed as viable cells at 10 uM by MTT assay. The format is cell-based. The conditions noted are these: read-out: Activity.
Data set [11] deals with T1, Amine oxidase [flavin-containing] A. The data set can be described thus: Reversible inhibition of human MAO-A expressed in baculovirus infected BT1 cells microsome fraction assessed as enzyme activity recovered at 10 times of IC50 concentration preincubated for 30 mins followed by dilution to 0.1 times of IC50 concentration by fluorescence spectrometry. Also on record: scale not given: the % may be the effect or the level left.

For data set [12] the target is unchanged. Description: Reversible inhibition of human MAO-A expressed in baculovirus infected BT1 cells microsome fraction assessed as enzyme activity recovered at 100 times of IC50 concentration preincubated for 30 mins followed by dilution to IC50 concentration by fluorescence spectrometry. Also noted: scale not given: the % may be the effect or the level left.

Data set [13] in a line: Cytotoxicity against human HeLa cells by MTT assay. The data set is classed as cell-based.

Consider `C#CCN(C)Cc1ccccc1` [PARGYLINE], for which the Activity in data set [1] amounted to 1.2%.

On to `O=C(/C=C/c1ccc(F)c(Br)c1)c1ccc(Cl)s1`, for which the 50% inhibitory concentration (IC50) worked out at 0.116 µM in [2] and 10.5 µM in data set [3]. The Ratio IC50 in [4] amounted to 91.

Consider `COc1ccc(C(=O)/C=C/c2cccc(Cl)c2)cn1`, for which the IC50 was 0.33 µM in data set [2] and 15.3 µM in data set [3]. In data set [4], the Ratio IC50 was determined as 46.

As to `COc1ccc(C(=O)/C=C/c2ccc(Cl)s2)c(O)c1`, the 50% inhibitory concentration (IC50) in [2] is 0.185 µM; in data set [3], 9.99 µM. Also, the Ratio IC50 in [4] is 54.

Regarding `Cc1ccc(C(=O)/C=C/c2ccc(F)c(Br)c2)s1`, the concentration for half-maximal inhibition (IC50) was found to be 0.067 µM in data set [2] and 16.1 µM in [3]. Also, in [4], the Ratio IC50 was 240. The Activity was determined as 26% in [5], 5% in [6], 83% in [7] and 18% in [8]. Further, in data set [9], the viability at 1 µM was 104%. Also, the viability at 10 µM in data set [10] is 95.7%.

Regarding `O=C(/C=C/c1ccc(F)c(Br)c1)c1ccc[nH]1`, the IC50 turned out to be 0.803 µM in data set [2] and 8.98 µM in data set [3]. In addition, the Ratio IC50 in [4] was 11. Also, the Activity was 81% in data set [5] and 60% in data set [6]. For the same molecule, the viability at 1 µM in [9] came to 99.4%. For the same molecule, the viability at 10 µM in [10] turned out to be 98%.

For `O=C(/C=C/c1ccc(C(F)(F)F)cc1)c1ccc(Cl)s1`, the 50% inhibitory concentration (IC50) in data set [2] is 0.133 µM; in data set [3], 7.56 µM. In addition, the Ratio IC50 in data set [4] worked out at 57.

Take `O=C(/C=C/c1cccc(Cl)c1)c1ccc[nH]1`: the results for the IC50 in data set [2] and in data set [3] were 3.27 µM and 143 µM, respectively. In addition, the Ratio IC50 in data set [4] is 44.

Turning to `C#CCN(C)[C@H](C)Cc1ccccc1` [SELEGILINE], the Activity in data set [1] was 1.2%.

Take `O=C(/C=C/c1ccc(C(F)(F)F)cc1)c1ccc[nH]1`: the concentration for half-maximal inhibition (IC50) in data set [2] came to 0.83 µM; in [3], 3.81 µM. In addition, the Activity in data set [11] amounted to 90%; in data set [12], 67%; in data set [5], 85%; in data set [6], 32%. The viability at 1 µM in data set [9] came out at 77.5%. The viability at 10 µM in data set [10] was 4.66%. In [13], this molecule came in with a CC50 of 28.2 µM.

Take `O=C(/C=C/c1cccc(C(F)(F)F)c1)c1ccc[nH]1`: the 50% inhibitory concentration (IC50) in data set [2] is 1.4 µM; in [3], 267 µM. Also, the Ratio IC50 in [4] stood at 191.
